This passage reports melting point results from a melting point compilation (Tetko et al.; mined from patent text by program, amines drawn as free bases though some values may be those of a salt).

Where only a bound is given, the exact number is not on record here.

`CC(C)(CCO)c1ccc(C(=O)Nc2cn3cc(-n4ccnc4)ccc3n2)cc1`: the melting point lay within 225 to 227 °C.
As for `CSC(=NC(=O)CS(C)(=O)=O)N(C)N=Cc1ccccc1`, the melting point was 150 °C.
Then `O=C1OC(=O)c2c(Cl)c(Sc3ccccc3)c(Cl)c(Cl)c21`, with 162 to 164 °C; and `O=c1[nH]c(=O)n(C2OC(CO)C(O)C2F)cc1C=CBr` (stereo not drawn), with 80 to 83 °C; and `CC(C)CC(=O)Nc1cccc(-c2ccnc3c(-c4cccc(N)c4)cnn23)c1`, with 173 to 175 °C.
With `CC1=C(C)C(=O)C(CCCOc2ccc(C=C3SC(=O)NC3=O)cc2)=C(C)C1=O`, the melting point was 230 to 232 °C.
In the case of `CC(=O)OCCc1cccc2c(-c3ccccc3)c([N+](=O)[O-])oc12`, the melting point was in the range of 95 to 98 °C.
In turn, `Cc1ccnc(CN(C(=O)C(C)Cl)c2ccccc2)n1` (stereo not drawn) came in with a melting point of 110 °C.
As for `COc1cccc(C(=O)Nc2ccc3ccc(Cl)nc3n2)c1`, the melting point was 178 °C.
In the case of `CCOC(=O)c1cc(=O)c2cc(N3CCOCC3)c(=O)ccc2n1C` it was 170 to 172 °C; in that of `CC1COC(C2CCC(O)C2)N1C(=O)c1ccccc1` (stereo not drawn), 83 to 85 °C; in that of `CC(=O)NC(=O)OC[C@]1(C)S[C@@H]2[C@H](NC(=O)Cc3ccccc3)C(=O)N2[C@H]1C(=O)OCc1ccc([N+](=O)[O-])cc1`, 83 to 85 °C.
Then `O=S(=O)(/C=C/c1ccc(Cl)cc1)Nc1cccc(Cl)c1`, with 118 to 120 °C.
In the case of `CC(C)(C)OC(=O)N1CCN(c2ccc(N3CCN(Cc4ccccc4)CC3)cc2)CC1` it was 132 to 133 °C.
For `O=C(O)c1ccc(O)c(C(=O)C=Cc2ccc(OCc3ccc4ccccc4n3)cc2)c1`, the melting point lay in the range of 258 to 260 °C.
Take `CC(=O)Nc1c(C(C)=O)[nH]c2cc(Cl)ccc12`: the melting point lay within 262 to 267 °C.
In the case of `Nc1ccccc1CS(=O)c1nc2ccccc2[nH]1` (stereo not drawn) it was 164 to 165 °C; in that of `COc1ccc(N(C(=O)CN2C(=O)C(C)(Cc3n[nH]c4ccccc34)C(=O)N(c3cccnc3)c3ccccc32)C(C)C)cc1` (stereo not drawn), 161 to 165 °C; in that of `COc1nc(SC)nc(Cl)c1C(=O)O`, 179 to 181 °C.
In the case of `CNc1cccc2c1CCn1cc(-c3ccccc3)nc1C2OC1CCN(C)CC1` (stereo not drawn), the melting point is 189 °C.
Regarding `COc1ccccc1N1CCN([C@H]2CC[C@H](c3ccc(-c4ccccc4)cc3)CC2)CC1`, the melting point lay in the range of 220 to 225 °C.
In the case of `Cc1ccc(/C=C/[C@@]2(O)C[C@H](O)CC(=O)O2)cc1` it was 126 to 127 °C; in that of `Cc1oc(-c2ccccc2)nc1COc1ccc(COc2nn(Cc3ccc(OCc4nc(-c5ccccc5)oc4C)cc3)cc2C=O)cc1`, 155 to 156 °C.
Take `Cc1cc2c(c3c1NC(=O)CC3)OC(CO)C2` (stereo not drawn): the melting point lay within 172 to 173 °C.
For `CC(=O)NCC1CN(c2ccc(N3CCN(C(=O)COC(=O)CCCN(C)C)CC3)c(F)c2)C(=O)O1` (stereo not drawn), the melting point lay within 69 to 71 °C.
With `NCCCNC(c1ccccc1)(c1ccccc1)c1ccccc1`, the melting point lay in the range of 59 to 61 °C.
Then `O=C(NCC(=O)N1c2ccccc2N(Cc2ccccc2)C(=O)[C@H]2CCC[C@H]21)c1cccnc1` (relative stereo), with 189 to 191 °C; and `COC(=O)CCCCCCC(=O)c1ccc(OC)cc1`, with 57 to 58 °C; and `Cc1cc(-c2cn[nH]c2N)ccn1`, with 230 °C.
Then `O=C(Nc1ccc(O)cc1)Nc1cc(Cl)ccc1C(=O)O`, with 212 to 214 °C; and `C[C@H](O)[C@H](Cc1ccccc1)C(=O)NN`, with 167 °C; and `CCN(CC)C(=O)n1cc(F)c(S(=O)(=O)c2c(Cl)cc(Cl)cc2Cl)n1`, with 89 to 90 °C.
On to `CCOC(=O)c1[nH]c(CC)c(CC)c1CC`, for which the melting point was in the range of 47 to 49 °C.
Then `O=C(O)COc1cccc2c1Cc1sc(SCC=Cc3ccccc3)nc1-2`, with 172 to 174 °C; and `CNc1c(F)cc2c(=O)c(C(=O)O)cn(-c3ccc(F)c(OC)c3)c2c1Cl`, with 250 to 253 °C.
Then `COC(C(=O)O)c1ccc(OCc2ccccn2)cc1` (stereo not drawn), with 169 to 170 °C; and `CC(C)c1csc(/C=C/c2cc(N)ccc2Cl)n1`, with 82 to 85 °C; and `COc1ccc(-c2cc3ccccc3[nH]2)cc1NC(=S)NCCNC(=O)OC(C)(C)C`, with 159 to 160 °C.
Then `O=C1c2ccccc2C(=O)N1Cc1ncc(/C=C/C(c2cc(Cl)c(Cl)c(Cl)c2)C(F)(F)F)cc1Cl` (stereo not drawn), with 79 to 82 °C; and `CC(C)(C)c1ccc(S(=O)(=O)N2c3ccccc3C[C@H]2C(=O)NCc2ccc(C(=O)O)cc2)cc1`, with 105 to 120 °C.
`O=C(O)C(O)N1C(=O)CCN1c1cccc(Cl)c1` (stereo not drawn) had a melting point of 134 to 136 °C.
`Cc1cc(C#N)cc(C(=O)Nc2ccc(F)cn2)n1` yielded a melting point of 204 °C.
For `Cc1c(C(F)(F)F)[nH]c(=O)n(-c2ccc(Br)cc2F)c1=O`, the melting point lay in the range of 188 to 189 °C.
Then `CCOc1c(Nc2ccc(C#N)cc2)c(=O)c1=O`, with 218 to 222 °C; and `Cc1cc(C)c2cccc(OCc3c(Cl)ccc(S(=O)(=O)N4CCC[C@H]4C(=O)NCCCNC(=O)c4cccc(C#N)c4)c3Cl)c2n1`, with 102 to 106 °C.
For `CCCCCC12CCC(c3ccc(C#N)c(F)c3)(CC1)CC2`, the melting point worked out at 63 °C.
In the case of `COc1ccccc1N1CCN(C(=O)OC(C)(C)C)CC1` it was 70 to 71 °C; in that of `C=CCCC(=O)N1CCc2nnc(NN)cc2C1`, 132 to 134 °C; in that of `N#CC(=Cc1cc(O)c(O)c([N+](=O)[O-])c1)C(=O)NCCCO`, 223 to 228 °C.
In turn, `Cc1ccc(S(=O)(=O)N2CCCC2C(=O)OC2c3cc(C#N)ccc3OC(C)(C)C2Br)cc1` (stereo not drawn) gave a melting point of 162 to 169 °C.
In turn, `CCOC(=O)c1c(C(F)(F)F)nc(C(F)(F)F)c(C)c1O` yielded a melting point of 23 to 24.5 °C.
Then `CC(=O)OC(C)c1cc2c(s1)C(=O)c1sccc1C2=O` (stereo not drawn), with 165 to 166 °C; and `COc1ccc(C(=O)NCc2c(C=O)cc(C)n2CCNC(C)=O)cc1OC`, with 165 to 167 °C.
As for `C[Si](C)(C)c1ccc(-c2ccc(I)cc2F)c(F)c1F`, the melting point stood at 76 °C.
The molecule `N#Cc1c(CF)nn(-c2c(Cl)cc(C(F)(F)F)cc2Cl)c1N` returned a melting point of 139 to 141 °C.
`NC(=O)NC(=O)c1ccccc1` gave a melting point of 175 °C.
Then `O=C(O)c1ccccc1S(=O)(=O)Cc1c(O[C@H](Cn2ccnc2)c2ccccc2)ccc2c1CCCC2=O`, with 230 °C; and `CCCCCCC(CCC(=O)OO)CC(=O)OO` (stereo not drawn), with 51.5 to 52.5 °C; and `CNC(=O)Nc1nccc(Oc2ccc3c(C(=O)Nc4ccc(F)c(C(F)(F)F)c4)cccc3c2)n1`, with 233 to 234 °C.
In the case of `COC1(NC(=O)OCc2ccccc2)CNC1=O` (stereo not drawn) it was 112 to 114 °C; in that of `CC1CC2C3C=C(Cl)C4=CC(=O)CCC4(C)C3C(O)CC2(C)C1C(=O)CO` (stereo not drawn), 229 °C.
Then `CCOC(=O)c1ccc(C(C(N)=O)C(Cc2ccccc2)c2ccccc2N2CCCCC2)cc1` (stereo not drawn), with 161 to 162 °C; and `c1ccc(COc2cc3ccncc3cc2OCc2ccccc2)cc1`, with 97 °C; and `COC(=O)c1c[nH]c(Sc2ccccc2C)c1`, with 114 to 119 °C.
Turning to `O=C(Oc1ccccc1)N1c2ncccc2OCC1OP(=O)(Oc1ccccc1)Oc1ccccc1` (stereo not drawn), the melting point amounted to 82 °C.
Then `CN1N=C(c2ccc(F)cc2)c2ccc(C#N)cc2CS1(=O)=O`, with 284 to 285 °C; and `CCOC(=O)C1=C(c2ccc(-n3nc(C)nc3C)cc2)NC(C)=C(C(=O)Nc2ccccn2)C1c1ccccc1Cl` (stereo not drawn), with 130 °C; and `Cc1sc(N)nc1-c1ccc(CCN2CCN(c3cccc4ccccc34)CC2)cc1`, with 160 to 165 °C.
`Cc1cnc(CO)cc1C(c1cc(F)ccc1F)S(=O)(=O)c1ccc(Cl)cc1` (stereo not drawn) displayed a melting point of 196 to 198 °C.
As for `COc1ccc(-c2csc(Nc3ccc4ccccc4n3)n2)cc1OC`, the melting point lay in the range of 257 to 259 °C.
Regarding `N#Cc1ccc2c(c1)C(c1ncnc3c1cnn3C1CCCC1)C(=O)N2` (stereo not drawn), the melting point was > 300 °C.
Then `O=C(O)CCCOc1cc(Cn2cc(C3c4ccccc4C=Cc4ccccc43)c(=S)[nH]c2=O)cc(OCC(=O)O)c1`, with 104 to 109 °C; and `CCOC(=O)CC1CCN(C(=O)c2ccccc2)CC1`, with 47 to 48 °C.
`Cc1cc(CCCCCOc2c(Cl)cc(-c3nc(C)c(C)s3)cc2Cl)on1` yielded a melting point of 57 to 58 °C.
Then `CSc1c(-n2ccnc2)c(-c2ccc(Cl)c(Cl)c2)nn1C`, with 88 to 90 °C; and `N#Cc1ccc(NC(=O)c2cccc(OCc3cc(F)cc(F)c3)c2)cc1`, with 185 to 187 °C.
Take `CCSc1c(C=O)c(=O)n(C)c(=O)n1C`: the melting point was 72 °C.
In the case of `COc1ccccc1OCCCl` it was 36 to 38 °C.
Then `CC12CCCC1C1CC=C3CC(O)CC(O)C3(C)C1CC2` (stereo not drawn), with 182 to 183 °C; and `COC(=O)c1ccc(CN2C(=O)C3(COc4cc5c(cc43)CCO5)c3ccccc32)cc1` (stereo not drawn), with 136 to 140 °C.
`CCOC(=O)C(=CNc1nonc1C)C(=O)c1cc(F)c(Cl)nc1Cl`: the melting point was in the range of 139 to 142 °C.
The molecule `COc1cc(C2CCN(CC(N)=O)CC2)ccc1Nc1ncc2ccc(-c3ccccc3OC)n2n1` gave a melting point of 88 to 95 °C.
In the case of `CCc1cc(C(=O)c2ccccc2Cl)c(-n2c(C)nnc2CNC(=O)Nc2ccccc2)s1` it was 141 to 143 °C.
Then `NC(=O)c1cc(OCCNCC(O)c2ccccc2)ccc1O` (stereo not drawn), with 166 to 172 °C; and `CCCCc1cnc(-c2ccc(C#N)c(F)c2)nc1`, with 87 °C.
On to `CNS(=O)(=O)c1ccc2c(c1)S(=O)(=O)NC1CCCN21` (stereo not drawn), for which the melting point fell in the range of 244 to 245 °C.
On to `Cc1cc2c(-c3cccnc3Cl)nc(O)nc2s1`, for which the melting point is > 300 °C.
In the case of `CCCCCCCCCCCCCCCC(=O)Nc1cccc(C(=O)O)c1C` it was 163 to 165 °C.
